Measured values: PMC7722752, “First-in-human Phase 1 open label study of the BET inhibitor ODM-207 in patients with selected solid tumours” (British Journal of Cancer, 2020)
Like-named read-outs stand apart in the source and are kept apart here.

How the values were obtained:
[1] = Phase 1 study: plasma pharmacokinetics and food effect; type: in vivo, human; conditions: for metabolite/parent ratio based in AUC(0-t): main metabolite = demethylation product
Excerpt: All patients provided written informed consent.

[2] = test system: platelet count; experiment: Phase 1 study: platelet count as pharmacodynamic biomarker; conditions: in vivo
Excerpt: Platelet count was chosen as a pharmacodynamic biomarker based on the observed robust correlation between BET inhibitor exposure and thrombocytopaenia in preclinical and clinical studies.[13],[14]

[3] = test system: selected solid tumours; experiment: Phase 1 study: anti-tumour activity (RECIST 1.1, PCWG3, Lugano); type: in vivo, human
Experimental: (§1) Response was assessed using RECIST 1.1 for patients with advanced solid tumours,[20] Prostate Cancer Working Group 3 criteria (PCWG3) for castrate-resistant prostate cancer[21] and Lugano criteria for non-Hodgkin lymphoma.[22]
Efficacy evaluation was performed on all patients who received two or more cycles of treatment (≥8 weeks).

[4] = test system: patients with selected solid tumours
Excerpt: The study design contained two parts: (1) dose escalation in patients with advanced solid tumours with an innovative single dose accelerated titration procedure in the first cohort (1A), (2) evaluation of food effect on bioavailability (1B). The single-dose accelerated titration procedure in the first cohort involved comparison of measured pharmacokinetic parameters in the first cohort of patients against preclinical models to evaluate whether exposure was within the target range. If the measured exposure was outside the target range (below or above), the protocol allowed for dose adjustment. Dose escalation was performed using a traditional 3 + 3 schedule. […] The relevant national authorities provided regulatory approval and local institutional review boards approved the protocol. All study procedures were conducted in accordance with the Declaration of Helsinki and good clinical practice. All patients provided written informed consent.
The starting dose was chosen as it was reasonably expected to be both pharmacologically active and safe and tolerable. The target exposure for the starting dose was estimated from exposures observed in pre-clinical anti-tumour activity and safety studies. The estimated human dose required was predicted by both human equivalent dose calculations and physiologically-based pharmacokinetic modelling. […] Treatment was taken in the ambulatory setting, except for hospital admissions required for pre-specified study-related procedures.
as §1
Safety analyses included all patients who received any doses of treatment. Efficacy evaluation was performed on all patients who received two or more cycles of treatment (≥8 weeks). Data points were excluded from relevant pharmacokinetic and platelet count analyses if samples were taken when the patient was on treatment interruption or within 3 days after resumption of treatment. […] Pre-dose total exposure of <3500 ng/mL was not expected to have significant BET inhibition effect and a level of ≥5000 ng/mL was expected to confer BET inhibition.

[5] = test system: BET; parameters: method as in earlier work; conditions: preclinical; cited from earlier work
[6] = test system: breast cancer and leukaemia and prostate cancer xenograft models; parameters: method as in earlier work; conditions: preclinical; cited from earlier work
[7] = test system: non-BET family bromodomains; conditions: preclinical; cited from earlier work
[8] = cohort 1A-1 0.6 mg/kg (50 mg) (n = 3)
[9] = cohort 1A-2 1.3 mg/kg (100 mg) (n = 7)

## COc1cc2c(cc1-c1c(C)noc1C)cc(C)c(=O)n2Cc1ccccn1 [ODM-207]
[1]; day 1
  metabolite/parent ratio based in AUC(0-t): 0.1–0.2
[1]; day 15
  metabolite/parent ratio based in AUC(0-t): 0.1–0.5
[1]; dose escalation 0.6–2.0 mg/kg
  exposure versus dose: dose proportional exposure
[1]; food effect cohort, single dose, light breakfast vs overnight fasting
  Plasma exposure (AUC0-24) under fed condition versus fasting condition: 1.5 fold
[1]; n = 28, 95% CI 2.9, 3.8
  increase of mean AUC(0-t) between day 1 and day 15 of dosing: 3.4 fold
[1]; oral
  absorption and elimination (plasma pharmacokinetics): slow absorption and elimination
[2]
  correlation between plasma exposure and changes in platelet count over time: strong correlation
  recovery of platelet count upon treatment interruption: Prompt recovery
[3]; 21 evaluable patients
  non-CR/non-PD (non-measurable disease) as best response: 6 (29%) patients
  progressive disease (PD) as best response: 9 (43%) patients
  stable disease (SD) as best response: 29%
[3]; 21 evaluable patients (≥ 8 weeks of treatment), RECIST
  partial or complete response (PR, CR): None had a partial or complete response
[3]; NUT midline carcinoma, four patients
  patients with NMC with SD as best response: One out of four
[3]; in vivo
  correlation between progression-free survival and increased exposure: no correlation
  median (range) duration of SD: 16.3 (8.0–23.0) weeks
  median progression-free survival: 2.2 months
  progression-free survival, range: 0.5–9.7 months
[3]; of 35 treated patients
  Treatment discontinuation due to disease progression: 28 (80%) patients
[3]; prostate cancer patients
  decline in PSA below baseline level: None of the prostate cancer patients showed decline in PSA below baseline level
[4]; GRADE 1, Total (n = 35)
  Related AE: Asthenia: 3 (8.6) n (%)
  Related AE: Decreased appetite: 12 (34) n (%)
  Related AE: Diarrhoea: 9 (26) n (%)
  Related AE: Dysgeusia: 4 (11) n (%)
  Related AE: Fatigue: 9 (26) n (%)
  Related AE: Headache: 7 (20) n (%)
  Related AE: Nausea: 13 (37) n (%)
  Related AE: Thrombocytopaenia: 15 (43) n (%)
  Related AE: Vomiting: 7 (20) n (%)
  Related AE: Weight loss: 4 (11) n (%)
[4]; GRADE 2, Total (n = 35)
  Related AE: Asthenia: 3 (8.6) n (%)
  Related AE: Decreased appetite: 8 (23) n (%)
  Related AE: Diarrhoea: 5 (14) n (%)
  Related AE: Dysgeusia: 3 (8.6) n (%)
  Related AE: Fatigue: 6 (17) n (%)
  Related AE: Headache: 3 (8.6) n (%)
  Related AE: Nausea: 4 (11) n (%)
  Related AE: Thrombocytopaenia: 8 (23) n (%)
  Related AE: Vomiting: 3 (8.6) n (%)
  Related AE: Weight loss: 1 (2.9) n (%)
[4]; GRADE 3, Total (n = 35)
  Related AE: Fatigue: 2 (5.7) n (%)
  Related AE: Nausea: 3 (8.6) n (%)
  Related AE: Thrombocytopaenia: 4 (11) n (%)
  Related AE: Weight loss: 1 (2.9) n (%)
[4]; GRADE 4, Total (n = 35)
  Related AE: Thrombocytopaenia: 1 (2.9) n (%)
[4]; Total (n = 35)
  AEs leading to dose reduction: 4 (11) n (%)
  AEs leading to dosing interruption: 19 (54) n (%)
  DLTs: 1 (2.9) n (%)
  Grade ≥ 3 AEs: 19 (54) n (%)
  Related SAEs: 3 (8.6) n (%)
  SAEs: 14 (40) n (%)
[4]; any grade, n = 35
  Common AE: nausea: 66%
[4]; [8]
  AEs leading to dosing interruption: 2 (67) n (%)
  AEs leading to study discontinuation: 1 (33) n (%)
[4]; [9]
  AEs leading to dosing interruption: 4 (57) n (%)
  DLTs: 1 (14) n (%)
  Grade ≥ 3 AEs: 3 (43) n (%)
[4]; cohort 1A-2 1.3 mg/kg (100 mg) (n = 7), oral once daily
  SAEs: 2 (29) n (%)
[4]; cohort 1A-3 1.5 mg/kg (n = 5)
  AEs leading to dosing interruption: 2 (40) n (%)
  AEs leading to study discontinuation: 2 (40) n (%)
  Grade ≥ 3 AEs: 2 (40) n (%)
  SAEs: 2 (40) n (%)
[4]; cohort 1A-4 2 mg/kg (n = 6)
  AEs leading to dose reduction: 2 (33) n (%)
  AEs leading to dosing interruption: 5 (83) n (%)
  AEs leading to study discontinuation: 1 (17) n (%)
  Grade ≥ 3 AEs: 4 (67) n (%)
  Related SAEs: 2 (33) n (%)
  SAEs: 3 (50) n (%)
[4]; cohort 1B-1 1.1 mg/kg (n = 10)
  AEs leading to dose reduction: 1 (10) n (%)
  AEs leading to dosing interruption: 4 (40) n (%)
  AEs leading to study discontinuation: 3 (30) n (%)
  Grade ≥ 3 AEs: 6 (60) n (%)
  SAEs: 3 (30) n (%)
[4]; cohort 1B-2 1.4 mg/kg (n = 4)
  AEs leading to dose reduction: 1 (25) n (%)
  AEs leading to dosing interruption: 2 (50) n (%)
  AEs leading to study discontinuation: 2 (50) n (%)
  Grade ≥ 3 AEs: 4 (100) n (%)
  Related SAEs: 1 (25) n (%)
  SAEs: 4 (100) n (%)
[4]; due to cumulative toxicity beyond the DLT treatment window
  highest studied dose achieved: 2 mg/kg
[4]; n = 35
  Common AE: anorexia: 49%
  Common AE: diarrhoea: 40%
  Common AE: fatigue: 43%
  Common AE: headache: 37%
  Common AE: vomiting: 40%
  Common AE: weight loss: 23%
  deaths on study: five deaths on study, all of which were considered not related to ODM-207
  treatment-related grade ≥3 adverse event: fatigue: 5.7%
  treatment-related grade ≥3 adverse event: nausea: 8.6%
  treatment-related grade ≥3 adverse event: thrombocytopaenia: 14.3%
[4]; of 35 treated patients
  Treatment discontinuation due to AEs: 5 (14%) patients
[4]; one patient, 100 mg (1.9 mg/kg), cohort 1A-2
  dose-limiting toxicity observed: intolerable grade 3 fatigue
[4]; oral once daily, 28-day cycle, based upon observed adverse events beyond the DLT period
  maximum tolerated dose (MTD): 2 mg/kg
[4]; overall, n = 35
  patients who experienced a treatment-related AE: 31 (89%) patients
[5]
  BET inhibition potency: highly potent
[6]
  tumour growth inhibition: preclinical evidence of tumour growth inhibition
[7]
  cross-reactivity with non-BET family bromodomains: minimal cross-reactivity
